Assay results published in the RepoRT retention time repository (doi:10.1007/s00216-021-03828-0).

Tests used:
Settings in all cases: stereoisomer not certain
[1] = RP, Merck Supelco Ascentis Express C18, 100 × 2.1 mm, 2 µm, 40 °C, 0.2 mL/min, estimated dead time 1.1 min; A: water + 0.1% formic acid, pH 3; B: acetonitrile + 0.1% formic acid, pH 3; gradient (min/%B) 0/5 2/5 17/99.9 20/99.9
[2] = as above; remark: listed apart in the source
[3] = RP, Merck Supelco Ascentis Express C18, 100 × 2.1 mm, 2 µm, 40 °C, 0.4 mL/min, estimated dead time 0.55 min; A: water + 0.1% formic acid, pH 3; B: acetonitrile + 0.1% formic acid, pH 3; gradient (min/%B) 0/5 2/5 17/99.9 20/99.9
[4] = as above; remark: listed apart in the source
[5] = RP, Merck Supelco Ascentis Express C18, 100 × 2.1 mm, 2 µm, 39 °C, 0.3 mL/min, estimated dead time 0.73 min; A: water + 0.1% formic acid, pH 3; B: acetonitrile + 0.1% formic acid, pH 3; gradient (min/%B) 0/5 2/5 17/99.9 20/99.9
[6] = RP, Merck Supelco Ascentis Express C18, 100 × 2.1 mm, 2 µm, 40 °C, 0.25 mL/min, estimated dead time 0.88 min; A: water + 0.1% formic acid, pH 3; B: acetonitrile + 0.1% formic acid, pH 3; gradient (min/%B) 0/5 2/5 17/99.9 20/99.9
[7] = RP, Merck Supelco Ascentis Express C18, 100 × 2.1 mm, 2 µm, 40 °C, 0.35 mL/min, estimated dead time 0.63 min; A: water + 0.1% formic acid, pH 3; B: acetonitrile + 0.1% formic acid, pH 3; gradient (min/%B) 0/5 2/5 17/99.9 20/99.9

| LC retention time [1] [min] | LC retention time [2] [min] | LC retention time [3] [min] | LC retention time [4] [min] | LC retention time [5] [min] | LC retention time [6] [min] | LC retention time [7] [min] | Compound |
| --- | --- | --- | --- | --- | --- | --- | --- |
| 9.22 | 9.2 | 8 | 7.96 | 8.42 | 8.75 | 8.17 | CC(CCC(=O)NCC(=O)O)C1CCC2C3C(O)CC4CC(O)CCC4(C)C3CC(O)C12C (configuration not stated) [GLYCOCHOLATE] |
| 1.62 | 1.63 | 0.8 | 0.79 | 1.05 | 1.3 | 0.91 | CCCCC(N)C(=O)O (configuration not stated) [NORLEUCINE] |
| 7.01 | 7 | 5.53 | 5.49 | 6.06 | 6.46 | 5.75 | COc1ccc2[nH]cc(CCNC(C)=O)c2c1 [MELATONIN] |
| 1.51 | 1.52 | 0.737 | 0.74 | 1.01 | 1.19 | 0.853 | CC(=O)NC(C)C(=O)O (configuration not stated) [N-ACETYLALANINE] |
| 4.85 | 4.83 | 2.95 | 2.88 | 3.67 | 4.19 | 3.27 | O=C(O)C(O)c1ccccc1 (configuration not stated) [MANDELATE] |
| 14.7 | 14.7 | 12.6 | 12.5 | 13.3 | 13.9 | 12.9 | CCCCCCCCCCCC(=O)O [LAURATE] |

Further lines, the compound ahead of its results:

| Compound | LC retention time [1] [min] | LC retention time [2] [min] | LC retention time [3] [min] | LC retention time [4] [min] | LC retention time [5] [min] | LC retention time [6] [min] | LC retention time [7] [min] |
| --- | --- | --- | --- | --- | --- | --- | --- |
| CCCCCCCCCCCC=CCCCCC(=O)[O-] [PETROSELINATE] | 18.2 | 18.1 | 16.1 | 16 | 16.8 | 17.4 | 16.4 |
| O=C(O)Cc1ccc(O)cc1 [P-HYDROXYPHENYLACETATE] | 5 | 4.99 | 3.36 | 3.34 | 4.02 | 4.43 | 3.64 |
| Cc1cc2nc3c(=O)[nH]c(=O)nc-3n(CC(O)C(O)C(O)CO)c2cc1C (configuration not stated) [RIBOFLAVIN] | 5.39 | 5.38 | 4.24 | 4.23 | 4.65 | 4.94 | 4.41 |
| N[C@@H](Cc1cc(I)c(O)c(I)c1)C(=O)O [3,5-DIIODO-L-TYROSINE] | 5.38 | 5.37 | 4.07 | 4.03 | 4.54 | 4.89 | 4.26 |
| CC(C)CC(N)C(=O)O (configuration not stated) [LEUCINE] | 1.55 | 1.56 | 0.743 | 0.727 | 0.98 | 1.22 | 0.873 |
| O=C(O)/C=C/c1ccccc1 [TRANS-CINNAMATE] | 8.31 | 8.28 | 6.59 | 6.54 | 7.27 | 7.67 | 6.86 |
| CSCC[C@H](NC=O)C(=O)O [N-FORMYL-L-METHIONINE] | 3.77 | 3.77 | 1.91 | 1.87 | 2.52 | 3.02 | 2.16 |
| CC(=O)NC(CS)C(=O)O (configuration not stated) [N-ACETYLCYSTEINE] | 1.91 | 1.92 | 0.95 | 0.937 | 1.26 | 1.52 | 1.09 |
| O=c1[nH]c(=O)c2ncn(C3OC(CO)C(O)C3O)c2[nH]1 (configuration not stated) [XANTHOSINE] | 1.62 | 1.65 | 0.81 | 0.81 | 1.05 | 1.29 | 0.923 |
| O=C(O)CCCCCCCCC(=O)O [SEBACATE] | 7.81 | 7.79 | 6.39 | 6.34 | 6.92 | 7.27 | 6.59 |
